{
  "source": "patent US20220062352A1",
  "about": "“COMPOSITIONS FOR THE TREATMENT OF CONDITIONS” (Demata Therapeutics, LLC, priority 2018, published 2022)",
  "origin": "cited, not measured here",
  "system": "acne vulgaris subjects",
  "data": [
    {"compound": "CC(=O)N[C@H]1C(O)O[C@H](CO)[C@@H](O)[C@@H]1O", "note": "(stereo partly drawn) [NAG, N-acetyl-D-glucosamine]", "values": [
      {"measurement": "tolerability versus 10% benzoyl peroxide", "setting": "acne vulgaris subjects", "result": "better tolerated by the subjects than 10% benzoyl peroxide"},
      {"measurement": "number of acne lesions", "setting": "over an 8-week period", "result": "quickly reduced the number of acne lesions"}
    ]}
  ]
}
